# Measurements published in US10745393B2, “Small molecular probes, processes and use thereof” (JAWAHARLAL NEHRU CENTRE FOR ADVANCED SCIENTIFIC RESEARCH, priority 2014, dated 2020).
# Where two headings read alike, the source gives them in different places. Marks after values point to notes of the source that are not given here.
# Assays:
# HEK293 cells = assay: DNase I and RNase digestion studies; assay type: cell-based; details: 2 hours
# Protocol: DNase I is known to degrade nuclear DNA while RNase degrades RNA in the cytoplasm by catalyzing phosphodiester bonds cleavage. HEK293 cells are fixed with chilled methanol for about 1 minute at room temperature and permeabilized with 0.1% Triton X-100 in PBS for about 2×5 minutes. After rinsing with PBS twice, for one set of experiments, cells are treated with probe TC (5 μM) for about 15 min at room temperature in three adjacent wells. A total of about 200 μL PBS (as control experiment), about 100 μg/mL DNase I (Sigma), or about 30 μg/ml DNase-Free RNase (GE) is added into the three adjacent wells and incubated at about 37° C. for about 2 hours. For another set of experiments, instead of treating with probe TC, cells are only treated with about 200 μL PBS (as control experiment), about 100 μg/ml DNase I (Sigma), or about 30 μg/mL DNase-Free RNase (GE) by adding into the three adjacent wells and incubating at about 37° C. for about 2 hours. […] After two more washes in PBS with 0.1% Triton X-100, the cover slips are washed in PBS, rinsed in ddH2O and briefly dipped in 100% ethanol. After a quick dry, cover slips are mounted with 70% glycerol. Images are captured using a Carl Zeiss Laser Scanning Microscope (LSM510 META) using an equal exposure time for control, DNase I, and RNase experiments. Experiments are done in duplicate.
# cells [1] = details: Table 3, commercial dyes; cited from earlier work
# cells [2] = details: Table 3, commercial dyes; cited from earlier work; remark: listed apart in the source
# DNA [3] = details: cited from earlier work; for Fluorescence qauntum yield (ΦF) DNA bound dye: Table 3, superscript a, commercial dyes
# (AT)20 = assay: Fluorescence response / quantum yield of probes with dsDNA (AT)20; assay type: binding; details: for ΦF with (AT)20: Tris-HCl buffer (100 mM, pH 7.4)
# [4] = Absorption, emission and quantum yield of probes in Tris-HCl buffer without DNA; assay type: physicochemical; details: for ΦF in Buffer: Tris-HCl buffer (100 mM, pH 7.4), absence of DNA; for emission (fluorescence) maxima / absorption maxima: Tris-HCl buffer, no DNA; for emission (fluorescence) maxima: very weak fluorescence; for absorption maxima: probe 10 μM
# (GC)10 = assay: Fluorescence response / quantum yield of probes with dsDNA (GC)10; assay type: binding; details: for ΦF with (GC)10: Tris-HCl buffer (100 mM, pH 7.4); for fluorescence change in presence of (GC)10: probe 10 μM
# (D1)mix = assay: Fluorescence response / quantum yield of probes with dsDNA (D1)mix; assay type: binding; details: Tris-HCl buffer (100 mM, pH 7.4)
# DNA [5] = assay: Comparison of DNA dyes: sequence selectivity and fluorescence of free/DNA bound dye; assay type: binding
# [6] = system: ssDNA oligonucleotides (dA10, dT10, dG10 and dC10); assay: Fluorescence emission in presence of ssDNA oligonucleotides; assay type: binding; details: probe 10 μM, Tris-HCl buffer
# (AT)10 = assay: Absorption / fluorescence response of probes with dsDNA (AT)10; assay type: binding; details: for fluorescence enhancement in presence of (AT)10: probe 10 μM, DNA 0 to 12 μM
# Aβ42 aggregates = Aβ42 aggregates (Homo sapiens, UniProt P05067); assay: Absorption / fluorescence response with Aβ42 fibrillar aggregates; assay type: binding
# Chain of Aβ42 aggregates (P05067 672-713 limits assumed): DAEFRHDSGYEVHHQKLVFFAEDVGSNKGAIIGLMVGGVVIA
# [7] = Absorption, emission and quantum yield of probes without Aβ42 aggregates; assay type: physicochemical
# [8] = biological target: ThT/Aβ42 aggregate complex (Homo sapiens, UniProt P05067); assay: ThT displacement / FRET assay; assay type: binding; details: excess ThT 50 μM; TC 1 μM, Aβ42 50 μM
# Chain of ThT/Aβ42 aggregate complex (P05067 672-713 limits assumed, one chain of several): as the sequence (P05067 672-713 limits assumed) above
# [9] = system: Aβ plaques in CSF samples; assay: Detection of amyloid plaques in CSF samples by fluorescence; details: ThT 20 μM
# Protocol: In the present experiment, Amyloid plaques in the CSF sample are detected as it is a hallmark of AD using ThT and QC. […] QC (10 μM) is used to detect Aβ plaques in the same set of CSF samples, which show the same trend as Thioflavin assay and stains CSF3, CSF5, CSF6 and CSF12 samples (FIG. 57 and table 6).
# [10] = fluorescence studies with dsDNAs
smiles,measurement,setting,value
"CN1CCN(c2ccc3[nH]c(-c4ccc5[nH]c(-c6ccc(O)cc6)nc5c4)nc3c2)CC1 [Hoechst33258, Hoechst 33258]",fluorescence nuclear staining after DNase I digestion,HEK293 cells; DNase I about 100 μg/mL,almost completely diminished
same,fluorescence nuclear staining after RNase digestion,HEK293 cells; RNase about 30 μg/mL,does not affect the fluorescence staining
same,Toxicity,cells [1],Non-Toxic
same,Cell permeability,cells [2],Permeable
same,Fluorescence maxima DNA bound dye,DNA [3],490/450 nm
same,Fluorescence maxima free dye,DNA [3],490/450 nm
CC[N+](C)(CC)CCC[n+]1c(-c2ccccc2)c2cc(N)ccc2c2ccc(N)cc21.[I-].[I-] [Propidium iodide],comparative fluorescence response in presence of (AT)20,"(AT)20; dye 10 μM, Tris-HCl buffer",do not show appreciable fluorescence changes
same,Toxicity,cells [1],Toxic
same,Cell permeability,cells [2],Impermeable
same,Fluorescence maxima DNA bound dye,"DNA [3]; Table 3, commercial dyes",617 nm
same,Fluorescence maxima free dye,"DNA [3]; Table 3, commercial dyes",646 nm
same,Fluorescence qauntum yield (ΦF) DNA bound dye,DNA [3],0.13^a
"CCN(CC)c1ccc2cc(/C=C/c3cc[n+](C)c4ccccc34)c(=O)oc2c1 [CL, coumarin lepidine]",ΦF in Buffer,[4],0.003
same,emission (fluorescence) maxima,[4],689 nm
same,absorption maxima,[4],519 nm
same,ΦF with (GC)10,(GC)10,0.007
same,ΦF with (AT)20,(AT)20,0.102
same,ΦF with (D1)mix,(D1)mix,0.052
same,"preferential binding affinity, AT-sites versus GC-sites",DNA [5]; [10],towards AT-sites than GC-sites
"C#CC[n+]1c(/C=C/c2cc3ccc(N(CC)CC)cc3oc2=O)sc2ccccc21 [TCP, (E)-3-(2-(N-(prop-2-ynyl)-benzo[d]thiazol-2-yl)vinyl)-7-(diethylamino)-2H-chromen-2-one]",emission behaviour in presence of ssDNA,[6],do not show significant changes in the emission behaviour
same,fluorescence change in presence of (GC)10,(GC)10,no change
same,probe concentration at which fluorescence saturates,"(AT)10; fixed concentration of DNAs ((AT)10, (D1)mix, (D2)mix), FIG. 32",about 5 μM
same,fluorescence enhancement in presence of (AT)10,(AT)10,6 fold
same,"preferential binding affinity, AT-sites versus GC-sites",DNA [5]; [10],towards AT-sites than GC-sites
"C[n+]1c(/C=C/c2ccc3ccc4cccc5ccc2c3c45)sc2ccccc21 [TP, thiazole pyrene]",ΦF in Buffer,[4],0.002
same,emission (fluorescence) maxima,[4],623 nm
same,absorption maxima,[4],460 nm
same,change in absorption and colour with Aβ42 aggregates,Aβ42 aggregates,fails to exhibit any detectable change in absorption
same,change in fluorescence in presence of Aβ42 aggregates,Aβ42 aggregates,does not show any detectable change in the fluorescence behavior
same,ΦF with (GC)10,(GC)10,0.005
same,ΦF with (AT)20,(AT)20,0.042
same,ΦF with (D1)mix,(D1)mix,0.026
same,"preferential binding affinity, AT-sites versus GC-sites",DNA [5],towards AT-sites than GC-sites
same,emission maximum in absence of Aβ42 aggregates,[7],623 nm
same,absorption maximum in absence of Aβ42 aggregates,[7]; pH 7.4,460 nm
"Cc1ccc2c(c1)sc(-c1ccc(N(C)C)cc1)[n+]2C.[Cl-] [ThT, Thioflavin T, reference compound]",displacement of TC from its complex with Aβ42 aggregates by excess ThT,[8],does not displace TC
same,Normalized fluorescence intensity (ThT),[9]; sample CSF1,14.35
same,Normalized fluorescence intensity (ThT),[9]; sample CSF2,5.60
same,Normalized fluorescence intensity (ThT),[9]; sample CSF3,18.25
same,Normalized fluorescence intensity (ThT),[9]; sample CSF4,7.45
same,Normalized fluorescence intensity (ThT),[9]; sample CSF5,40.65
same,Normalized fluorescence intensity (ThT),[9]; sample CSF6,24.40
same,Normalized fluorescence intensity (ThT),[9]; sample CSF7,5.75
same,Normalized fluorescence intensity (ThT),[9]; sample CSF8,8.40
same,Normalized fluorescence intensity (ThT),[9]; sample CSF9,7.50
same,Normalized fluorescence intensity (ThT),[9]; sample CSF10,3.26
same,Normalized fluorescence intensity (ThT),[9]; sample CSF11,8.35
same,Normalized fluorescence intensity (ThT),[9]; sample CSF12,37.50
same,Normalized fluorescence intensity (ThT),[9]; sample CSF13,4.20
same,Normalized fluorescence intensity (ThT),[9]; sample CSF14,4.52
"N=C(N)c1ccc(-c2cc3ccc(C(=N)N)cc3[nH]2)cc1 [DAPI, 4′,6-Diamidino-2-phenylindole]",Toxicity,cells [1],Non-toxic
same,Cell permeability,cells [2],Semi-Permeable
same,Fluorescence maxima DNA bound dye,"DNA [3]; Table 3, commercial dyes",450 nm
same,Fluorescence maxima free dye,"DNA [3]; Table 3, commercial dyes",496 nm
same,Selectivity,"DNA [3]; Table 3, commercial dyes",AT rich
same,Fluorescence qauntum yield (ΦF) DNA bound dye,DNA [3],0.42^a
CC[n+]1c(-c2ccccc2)c2cc(N)ccc2c2ccc(N)cc21 [Ethidium bromide],Toxicity,cells [1],Toxic
same,Cell permeability,cells [2],Impermeable
"CCN(CC)c1ccc2cc(/C=C/c3sc4ccccc4[n+]3CC)c(=O)oc2c1 [TCE, (E)-3-(2-(N-ethyl-benzo[d]thiazol-2-yl)vinyl)-7-(diethylamino)-2H-chromen-2-one]",emission behaviour in presence of ssDNA,[6],do not show significant changes in the emission behaviour
same,fluorescence change in presence of (GC)10,(GC)10,no appreciable change
same,fluorescence enhancement in presence of (AT)10,(AT)10,5 fold
same,"preferential binding affinity, AT-sites versus GC-sites",DNA [5]; [10],towards AT-sites than GC-sites
